In patent US4925853A, “Benzimidazoles as 5-lipoxygenase inhibitors” (Beecham Group PLC, priority 1984, dated 1990):
Counter-ions that a name gives are not always drawn.

How the values were obtained:
[1] = system: development of arthritis in the rat adjuvant arthritis model; assay: Rat Adjuvant Arthritis Model (Method A); assay type: in vivo; conditions: 25 mg/kg (i.p.)
Description: Rat Adjuvant Arthritis Model
The test is as described by Newbould, Brit. J. Pharmacol., 1963, 21, 127-136.
It is used to indicate anti-rheumatic activity as shown by inhibiting the development of arthritis in the rat adjuvant arthritis model. The compound of Example 1 is active at a concentration of 25 mg/kg (i.p.)

[2] = system: 5-lipoxygenase enzyme; assay: RBL-1 5-Lipoxygenase Screen (Method B), cell free; assay type: biochemical; conditions: 2 min
Description: RBL-1 5-Lipoxygenase Screen
5-Lipoxygenase enzyme was prepared as a 10,000 g supernatant from RBL-1 cells by the method of Jakschik [Jakschik, B. A., F. F. Sun, L. M. Lee, and M. M. Steinhoff, 1980, Biochem. Biophys. Res. Comm. 95, 103]. The 10,000 g supernatant was diluted with homogenization buffer to the equivalent of 1.5-2.5×10^7 cells. ml^-1 and made 2 mM with respect to CaCl2. Aliquots of 0.5 ml were then dispensed into tubes, and incubated at 29° C. with 5 μl ethanol or compound in ethanol at the desired concentration for 2 min. Then […] arachidonic acid was added in buffer to give final concentration of 6.3 μM and 0.2 μCi per incubation, and the reaction continued at 29° C. for 2 min. The reaction was terminated by adding 1 ml of acetone and cooling on ice, 0.5 ml of ice-cold saline and 10 μl of 2N formic acid were added, and the mixture was extracted with 2×2 ml of chloroform. The extract was stored under N2 at -20° C. until analysis by chromatography.
This test is used to show inhibition of the 5-lipoxygenase enzyme in a mammalian RBL-1 cell free 5-lipoxygenase assay.

[3] = system: carrageenin-induced pleurisy in the rat; assay: Carrageenin-induced pleurisy in the rat (Method C); assay type: in vivo; conditions: 1 hour before and 24 and 48 hours after carrageenin
Description: CARRAGEENIN-INDUCED PLEURISY IN THE RAT This model of monocyte accumulation is based on the method of R. Vinegar, J. F. Truax, J. […] [Federation Proceedings 41, 2588-2595, 1982]. 0.2 ml of a 2.0% solution of λ-carrageenin (Viscarin 402) in saline was injected intrapleurally in anaesthetised rats (wt. approx. 175-200 g). […] Exudate volume was calculated from the dilution of the phenol red injected, determined spectrophotometrically (560 nm) and cellular content estimated with a DNA assay [[…]. and Wollenberger A. Anal. Biochem. 77, 464-470, 1977]. This test is used to indicate anti-inflammatory activity against carrageenin-induced pleurisy in the rat.

[4] = system: SRS-A release; assay: Rat passive peritoneal anaphylaxis (PPA), SRS-A release (Method D); assay type: in vivo; conditions: final concentration of 2×10^-4 M, intraperitoneal
Text: Rat passive peritoneal anaphylaxis (PPA) The method is essentially similar to that described previously by Ross et al (Ross, Janet W., Smith, H. and Spicer, Barbara A. Increased vascular permeability during passive peritoneal anaphylaxis in the rat. Int. Arch. Allergy appl. Innum. 51, 226, 1976.) Charles River Sprague Dawley male rats of 225-275 g and Dunkin Hartley male white guinea pigs of 300-700 g were used. Charles River Sprague Dawley male rats of 225-275 g were given intraperitoneal injections of 0.5 ml of either Bordetella pertussis vaccine (4×10^10 organisms/ml; Burroughs Wellcome, London) or Pertussis vaccine absorbed (not less than 41.u. B. pertussis antigen with aluminium hydroxide; The Lister Institute Elstree, England), and subcutaneous injections of 0.5 ml of an emulsion of 100 mg of ovalbumin (chicken egg albumin; crystallised and lyophilised, grade V, Sigma, London) in 2 ml of isotonic saline and 3 ml of incomplete Freund's adjuvant. The rats were bled by cardiac puncture, under ether anaesthesia,on day 18, the blood was pooled and the serum separated, stored at -20° C. and thawed only once before use. The serum produced 72 hour passive cutaneous anaphylaxis activity in recipient rats to a dilution of 1:64 which was decreased to a dilution of less than 1:2 by heating at 56° C. for 4 hours. Rats were given intraperitoneal injections of 2 ml of a 1:5 dilution of the rat anti-serum in isotonic saline. Two hours later 0.3 ml of 5% solution of Pontamine Sky Blue (Raymond A. Lamb, London) in isotonic saline was injected intraveneously, followed by an intraperitoneal injection of the test compound in 1 ml of saline; (control rats received 1 ml of saline); followed 2.5 minutes later by an intraperitoneal injection of 5 ml of a Tyrode solution containing 50 μg/ml heparin and 0.4 mg/ml of ovalbumin. The concentrations of the compounds were quoted as that in the 6 ml of fluid injected intraperitoneally. […]

| Structure (SMILES) | anti-inflammatory activity against carrageenin-induced pleurisy ([3]; 25 mg/kg (p.o.)) | % inhibition of SRS-A release compared to controls [4] | other results |
| --- | --- | --- | --- |
| Cc1ccc(O)c2[nH]c(Cc3ccccc3)nc12 [Example 1, 2-Benzyl-4-hydroxy-7-methylbenzimidazole] | – | – | anti-rheumatic activity: inhibition of the development of arthritis in the rat adjuvant arthritis model [1]: active; percentage inhibition (5-lipoxygenase; formation of 5-HETE and 5,12-diHETE) ([2]; 0.5 μM concentration, p<0.01): 36.0 percentage; percentage inhibition (5-lipoxygenase; formation of 5-HETE and 5,12-diHETE) ([2]; 5 μM concentration, p<0.001): 78.1 percentage |
| Cc1ccc(Cc2nc3c(C)ccc(O)c3[nH]2)cc1 [Example 10, 2-(4'-Methylbenzyl)-4-hydroxy-7-methylbenzimidazole] | active | – | – |
| COc1ccc(Cc2nc3c(C)ccc(O)c3[nH]2)cc1.Cl [Example 12, 2-(4'-Methoxybenzyl)-4-hydroxy-7-methylbenzimidazole hydrochloride] | active | 58% | – |
| Cc1ccc(O)c2[nH]c(CCCCCC(=O)O)nc12 [Example 18, 6-(4-Hydroxy-7-methyl-benzimidazol-2-yl)-hexanoic acid hydrochloride hydrate (3:3:1)] | – | – | anti-inflammatory activity against carrageenin-induced pleurisy ([3]; 12 mg/kg (i.p)): active |
| COc1cc(Cc2nc3c(C)ccc(O)c3[nH]2)cc(OC)c1OC.Cl [Example 25, 2-(3',4',5'-Trimethoxybenzyl)-4-hydroxy-7-methylbenzimidazole hydrochloride] | – | 59% | – |
| COc1ccc(Cc2nc3c(C)ccc(O)c3[nH]2)cc1OC.Cl [Example 26, 2-(3',4'-Dimethoxybenzyl)-4-hydroxy-7-methylbenzimidazole hydrochloride] | – | 55% | – |
